Data: patent publication US20160305924A1 (LAGUNA PHARMACEUTICALS , INC., priority 2013, published 2016)

Assays:
Format in all cases: in vivo, human
[1] = Example 1: plasma concentrations of vanoxerine and metabolites after a 300 mg dose (LC-MS/MS); conditions: for High concentration group average (plasma concentration): 10 patients high concentration group; for Low concentration group average (plasma concentration): 15 patients low concentration group; for Concentrations (plasma): mean of 25 patients
Description: Each patient gave samples before administration of their dose, and then again at nine further time points, 30 minutes after administration, 1, 2, 3, 4, 6, 8, 12, and 24 hours post administration.
Evaluation of samples: A total of 270 human plasma samples were received (in duplicate). The samples were shipped frozen over dry ice. The samples were stored at −70° C. (nominal) until analysis.
Frozen samples were thawed at room temperature. Samples, calibrators, QC samples, sample blanks (blank plasma) and reagent blanks (water) were processed at room temperature. To 200 μL aliquots of each sample, calibrator, and QC sample are added 20 μL of 500 ng/mL of internal standard solution. A sample blank (blank plasma) and reagent blank (water) were also prepared, but without addition of internal standard solution (20 μL of diluent was added instead). To each sample, 200 μL of 1% ammonium hydroxide solution were added and vortex mixed. 3.0 mL of methyl tert-butyl ether were added and then vortex mix for 30 seconds. The sample is then centrifuged for 5 minutes at 4000 rpm and then transferred for about 30 minutes at −70° C. (nominal). The upper (organic) layer was transferred into an evaporation tubes and then evaporated under N2 stream at −50° C. for about 20 min. Samples were then reconstituted in 1000 μL reconstitution solution (80:20:0.1 water: acetonitrile: formic acid). Samples were mixed, allow to stand for about 3 minutes and mixed again. 900 μL of the sample solution was transferred to a 1.5 mL microcentrifuge tube and centrifuged for 5 minutes at 14000 rpm at room temperature. 800 μL of the sample solution was transferred to a glass autosampler vial, and then transferred to the autosampler for analysis. Samples were separated using reversed-phase liquid chromatography with a C18 column.
Chromatographic conditions were as follows: • HPLC instrument: Waters Alliance e2795 HT with temperature controlled autosampler • Column: Waters XBridge C18 3.5μ 100×2.1 mm P.N. 186003022, Lot No. 0143302711 with an appropriate guard column • Column temperature: 45° C. • Autosampler temp. 5° C. • Flow: 0.3 mL/min • Mobile phase A: 10 mM ammonium formate buffer:MeOH:ACN 80:10:10 • Mobile phase B: 10 mM ammonium formate buffer:MeOH:ACN 5:50:45 • Purge solvent: Water:ACN:formic acid 50:50:0.1 • Wash solvent: Water:ACN:formic acid 50:50:0.1 • Injection volume: 20 μL • Run Time: 15 minutes
Detection was based on electro-spray interface in positive mode (ESI+) LC-MS/MS technique, using Micromass Quattro Premier XE MS/MS detector with MassLynx and QuanLynx software version 4.1. […] The MRM transition for all hydroxyl metabolites was m/z 467→203.

[2] = Example 4: daily doses for 7 days, hemodynamics and steady state; conditions: 50, 100, 150 mg daily, all patients
[3] = Example 5: adverse events
Source text: (§1) The vanoxerine or identical appearing placebo was randomly assigned and administered in a double-blinded fashion.

[4] = Example 2: daily doses for 11 consecutive days, PK and hemodynamics
[5] = Example 3: daily doses for 14 days after a standardized meal, serum levels and adverse events
Description: A standardized meal was served 15 minutes prior to each dosing.

[6] = system: recent onset symptomatic AF/AFL; assay: Example 5: double-blinded placebo-controlled study, conversion to sinus rhythm
Source text: as §1

[7] = 0.5 h post administration, 1.00 = below LLOQ

Compound: 16-hydroxyl vanoxerine [M02]
- High concentration group average (plasma concentration) ([1]; 0.5 h, 1.00 = below LLOQ): 1.00 ng/mL
- High concentration group average (plasma concentration) ([1]; 1 h, 1.00 = below LLOQ): 1.00 ng/mL
- High concentration group average (plasma concentration) ([1]; 6 h, 1.00 = below LLOQ): 1.00 ng/mL
- High concentration group average (plasma concentration) ([1]; 8 h, 1.00 = below LLOQ): 1.00 ng/mL
- High concentration group average (plasma concentration) ([1]; 12 h, 1.00 = below LLOQ): 1.00 ng/mL
- High concentration group average (plasma concentration) ([1]; 24 h): 0.00 ng/mL
- Low concentration group average (plasma concentration) ([1]; 0.5 h, 1.00 = below LLOQ): 1.00 ng/mL
- Low concentration group average (plasma concentration) ([1]; 2 h, 1.00 = below LLOQ): 1.00 ng/mL
- Low concentration group average (plasma concentration) ([1]; 3 h, 1.00 = below LLOQ): 1.00 ng/mL
- Low concentration group average (plasma concentration) ([1]; 4 h, 1.00 = below LLOQ): 1.00 ng/mL
- Low concentration group average (plasma concentration) ([1]; 6 h, 1.00 = below LLOQ): 1.00 ng/mL
- Low concentration group average (plasma concentration) ([1]; 8 h, 1.00 = below LLOQ): 1.00 ng/mL
- Low concentration group average (plasma concentration) ([1]; 12 h, 1.00 = below LLOQ): 1.00 ng/mL
- Low concentration group average (plasma concentration) ([1]; 24 h, 1.00 = below LLOQ): 1.00 ng/mL
- Concentrations (plasma) [1, 7]: 1.00 ng/mL
- Concentrations (plasma) ([1]; 1 h, 1.00 = below LLOQ): 1.02 ng/mL
- Concentrations (plasma) ([1]; 2 h, 1.00 = below LLOQ): 1.02 ng/mL
- Concentrations (plasma) ([1]; 3 h, 1.00 = below LLOQ): 1.01 ng/mL
- Concentrations (plasma) ([1]; 4 h, 1.00 = below LLOQ): 1.01 ng/mL
- Concentrations (plasma) ([1]; 6 h, 1.00 = below LLOQ): 1.00 ng/mL
- Concentrations (plasma) ([1]; 8 h, 1.00 = below LLOQ): 1.00 ng/mL
- Concentrations (plasma) ([1]; 12 h, 1.00 = below LLOQ): 1.00 ng/mL
- Concentrations (plasma) ([1]; 24 h, 1.00 = below LLOQ): 1.00 ng/mL

Compound: 17-hydroxyl vanoxerine [M01]
- High concentration group average (plasma concentration) ([1]; 2 h, 1.00 = below LLOQ): 28.00 ng/mL
- Low concentration group average (plasma concentration) ([1]; 8 h, 1.00 = below LLOQ): 5.30 ng/mL
- Concentrations (plasma) [1, 7]: 1.93 ng/mL
- Concentrations (plasma) ([1]; 1 h, 1.00 = below LLOQ): 7.51 ng/mL
- Concentrations (plasma) ([1]; 2 h, 1.00 = below LLOQ): 19.65 ng/mL
- Concentrations (plasma) ([1]; 3 h, 1.00 = below LLOQ): 18.68 ng/mL
- Concentrations (plasma) ([1]; 4 h, 1.00 = below LLOQ): 16.42 ng/mL
- Concentrations (plasma) ([1]; 6 h, 1.00 = below LLOQ): 11.48 ng/mL
- Concentrations (plasma) ([1]; 8 h, 1.00 = below LLOQ): 8.98 ng/mL
- Concentrations (plasma) ([1]; 12 h, 1.00 = below LLOQ): 6.30 ng/mL
- Concentrations (plasma) ([1]; 24 h, 1.00 = below LLOQ): 3.66 ng/mL

Compound: Fc1ccc(C(OCCN2CCN(CCCc3ccccc3)CC2)c2ccc(F)cc2)cc1 [Vanoxerine, 1-[2-[bis(4-fluorophenyl)methoxy]ethyl]-4-(3-phenylpropyl)piperazine]
- steady state levels achieved [2]: within one week
- Adverse events: serious adverse events ([3]; 200 mg (22)): 1 SAE
- Adverse events: subjects reporting ([3]; 200 mg (22)): 4 (18%) subjects (%)
- Adverse events: subjects reporting ([3]; 300 mg (25)): 7 (28%) subjects (%)
- Adverse events: serious adverse events ([3]; 400 mg (25)): 1 SAE
- Adverse events: subjects reporting ([3]; 400 mg (25)): 10 (40%) subjects (%)
- tolerability ([3]; 200, 300, 400 mg): well tolerated at all doses
- T1/2 range ([4]; 50 mg daily for 11 days): (4.71-110.57) hr
- T1/2 range ([4]; 75 mg daily for 11 days): (10.26-116.67) hr
- steady state reached ([4]; 50, 75 and 100 mg daily): ≤ 8 days
- Tmax ([4]; human, plasma, printed in the Dose column under 50 mg, read-out: TMax range): 0.5 to 2 h
- steady-state serum levels versus dose ([5]; 25, 75, 125 mg daily): disproportionately and statistically greater levels at higher doses
- adverse events ([5]; 25, 75, 125 mg daily for 14 days, healthy patients): No significant adverse events
- Efficacy: Percent conversion ([6]; 200 mg (22), 0-4 hr): 18%
- Efficacy: Percent conversion ([6]; 200 mg (22), 0-8 hr): 45%
- Efficacy: Percent conversion ([6]; 200 mg (22), 0-24 hr): 59%
- Efficacy: Percent conversion ([6]; 300 mg (25), 0-4 hr): 40%
- Efficacy: Percent conversion ([6]; 300 mg (25), 0-8 hr): 52%
- Efficacy: Percent conversion ([6]; 300 mg (25), 0-24 hr): 64%
- Efficacy: Percent conversion ([6]; 400 mg (25), 0-4 hr): 52%
- Efficacy: Percent conversion ([6]; 400 mg (25), 0-8 hr): 76%
- Efficacy: Percent conversion ([6]; 400 mg (25), 0-24 hr): 84%
- time to conversion to normal sinus rhythm, majority of patients ([6]; at a Cmax plasma concentration of more than 40 ng/ml): under 12 hours
